In patent US12263176B2, “Pharmaceutical liquid compositions of meloxicam” (SLAYBACK PHARMA LLC, priority 2020, dated 2025):

Key:
[1] = cited from earlier work
[2] = following oral administration; cited from earlier work
[3] = tested on: acute post-operative pain (Brennan) model in Sprague Dawley rats; assay: Acute post-operative pain (Brennan) model, paw withdrawal latency / mechanical hyperalgesia; assay type: in vivo; settings: 3 mg/kg IV
Description: Animal Study: Evaluation of Efficacy of Meloxicam Compositions in Acute Post-operative Pain (Brennan) Model in Sprague Dawley Rats.
The analgesic efficacy of Composition K was studied in comparison with Anjeso® and ketorolac tromethamine drug products in a rat acute post-operative pain model at a dose of 3 mg/kg administered by intravenous route.
Meloxicam compositions (Anjeso® & Composition K) & ketorolac drug products were tested in an acute post-operative (Brennan) pain model in rats after intravenous administration. Average paw withdrawal latency & mechanical hyperalgesia (pain assessment) parameters were assessed in rats after intravenous administration of vehicle (0.9% saline), ketorolac tromethamine (3 mg/kg), Anjeso® (3 mg/kg), Composition K (3 mg/kg). Evaluations began 30 minutes following surgery, and were continued for 240 minutes.
Mean paw withdrawal latency was between 8.6 to 8.9 across all the treatment groups. […] Average paw withdrawal latency in normal animals is 9.7 seconds whereas as it was 3.5 seconds in operated animals.

Cc1cnc(NC(=O)C2=C(O)c3ccccc3S(=O)(=O)N2C)s1 [Meloxicam, 4-hydroxy-2-methyl-N-(5-methyl-2-thiazolyl)-2H-1,2-benzothiazine-3-carbox-amide-1,1-dioxide]
solubility in methanol ([1]; methanol): very slightly soluble
solubility in water ([1]; water): practically insoluble
time of maximum observed plasma concentration (Tmax) [2]: 5 to 6 h

O=C(c1ccccc1)c1ccc2n1CCC2C(=O)O (centres unmarked) [ketorolac tromethamine]
increased average paw withdrawal latency compared with vehicle (0.9% saline) [3]: 68%
effect on development of mechanical allodynia ([3]; from 45 minutes till 240 minutes of recording, statistically significant at 45, 90 and 120 minutes): significantly prevented the development of mechanical allodynia
